Experimental data as given in publication doi:10.1101/520460v1, “Chromokinesins NOD and KID Use Distinct ATPase Mechanisms and Microtubule Interactions to Perform a Similar Function” (biorxiv, 2019).

Target: T1, KID (Homo sapiens, UniProt Q14807)
T1 construct: gene KIF22; Glu-C V8 protease added in crystallization
T1 sequence (Q14807 40-400): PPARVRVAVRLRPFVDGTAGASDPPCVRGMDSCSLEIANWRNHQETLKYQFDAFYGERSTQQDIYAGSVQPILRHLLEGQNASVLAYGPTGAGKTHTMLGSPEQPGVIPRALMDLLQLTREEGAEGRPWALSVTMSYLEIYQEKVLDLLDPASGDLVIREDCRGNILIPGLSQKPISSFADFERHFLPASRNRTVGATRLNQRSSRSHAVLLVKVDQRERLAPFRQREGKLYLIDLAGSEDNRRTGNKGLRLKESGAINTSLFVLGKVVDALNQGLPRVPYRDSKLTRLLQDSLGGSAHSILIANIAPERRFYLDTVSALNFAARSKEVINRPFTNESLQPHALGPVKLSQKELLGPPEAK
Experiment: X-ray crystal structure of the complex
Format: binding
Settings: crystals from 3.2 M NaCl, 0.1 M Tris pH 8.5, 291 K, 5 molar fold MgADP

Question: Which “X-ray crystal structure of the complex” value does the source give for Nc1ncnc2c1ncn2[C@@H]1O[C@H](COP(=O)(O)OP(=O)(O)O)[C@@H](O)[C@H]1O [ADP] here?
Answer: The value was “We solved the X-ray crystal structure of the KID catalytic domain in the ADP state”.
